Laboratory results reported in US20230061736A1, “GPR119 AGONISTS” (Kallyope, Inc., priority 2019, published 2023).
Where a name gives a salt, the structure may show the parent alone.

Biological target: T1, human GPR119 (hGPR119) (Homo sapiens, UniProt Q8TDV5)
T1 construct: expressed in transfected cells
T1 sequence (Q8TDV5 1-335): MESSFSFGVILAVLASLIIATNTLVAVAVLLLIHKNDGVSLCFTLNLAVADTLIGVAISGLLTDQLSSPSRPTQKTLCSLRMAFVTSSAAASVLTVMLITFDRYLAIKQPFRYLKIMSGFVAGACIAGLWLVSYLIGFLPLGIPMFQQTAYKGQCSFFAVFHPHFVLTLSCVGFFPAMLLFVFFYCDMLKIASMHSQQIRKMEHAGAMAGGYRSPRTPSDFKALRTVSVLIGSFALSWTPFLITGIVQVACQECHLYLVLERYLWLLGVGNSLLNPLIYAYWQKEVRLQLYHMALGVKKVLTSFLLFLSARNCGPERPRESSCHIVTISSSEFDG
Experiment: cAMP accumulation assay (cAMP Gs dynamic HTRF kit)
Format: cell-based
Settings: CHO-K1 cells stably expressing hGPR119, 4-parameter fit; for Emax: 1 h, % activity normalized to Max/Min controls; for EC50: cAMP accumulation
Method: CHO-K1 cells stably expressing human GPR119 (hGPR119) were prepared by transfection of a GPR119-carrying plasmid using Lipofectamine 2000 (following manufacturer instructions). A stable cell line was established using the limiting dilution method with geneticine selection. Assay-ready frozen (ARF) cells were prepared and used throughout the study.
The assay was performed in a 384-well plate format using the cAMP Gs dynamic assay kit from Cisbio. ARF cells expressing hGPR119 were thawed, washed and then resuspended in cAMP stimulation buffer at a cell density of 1.1×10^6 cells/mL. Cells were plated at a density of ˜10,000 cells/well (9 μL/well). Dose response curves for the tested compounds were prepared in a cAMP stimulation buffer, containing 0.1% Tween 80 at 4 fold the final concentration. The compounds were then transferred to the cell plates using BRAVO (3 μL/well) and the plates were incubated for 60 minutes at 37° C./5% CO2. Detection buffer (10 μL, prepared as described in the cAMP Gs dynamic kit) were added to each well, and the plates were incubated at ambient temperature for 1 hr.
RT-FRET was measured using a ClarioSTAR plate reader, calculating the ratio between emissions at 665 nm and 620 nm (HTRF ratio). The HTRF ratio for positive (Max) and negative (Min) controls were used to normalize HTRF data and generate values for % activity. EC50 and Max activity values were determined using a standard 4-parameter fit.

| Compound | Emax | EC50 |
| --- | --- | --- |
| O=C(Cc1ccc(OCCCC2CCN(c3ncc(Cl)cn3)CC2)cc1F)NCCCCC(=O)NC(CO)CO [Example 23, 5-[[2-[4-[3-[1-(5-chloropyrimidin-2-yl)-4-piperidyl]propoxy]-2-fluoro-phenyl]acetyl]amino]-N-[2-hydroxy-1-(hydroxymethyl)ethyl]pentanamide] | ≥ 130% | 100 to 1000 nM |
| O=C(Cc1ccc(OCCCC2CCN(c3ncc(Cl)cn3)CC2)cc1F)NCCCCC(=O)NC(CO)(CO)CO [Example 24, 5-[[2-[4-[3-[1-(5-chloropyrimidin-2-yl)-4-piperidyl]propoxy]-2-fluoro-phenyl]acetyl]amino]-N-[2-hydroxy-1,1-bis(hydroxymethyl)ethyl]pentanamide] | ≥ 130% | 100 to 1000 nM |
| O=C(Cc1ccc(OCCCC2CCN(c3ncc(Cl)cn3)CC2)cc1F)NCCCCCC(=O)N1C[C@H](O)[C@@H](O)C1 [Example 25, 2-[4-[3-[1-(5-chloropyrimidin-2-yl)-4-piperidyl]propoxy]-2-fluoro-phenyl]-N-[6-[(3S,4S)-3,4-dihydroxypyrrolidin-1-yl]-6-oxo-hexyl]acetamide] | ≥ 130% | 100 to 1000 nM |
| COCc1cnc(N2CCC(CCCOc3ccc(CC(=O)N4CC(C(=O)NCCNC(=O)NC(CO)(CO)CO)C4)c(F)c3)CC2)nc1 [Example 27, 1-[2-[2-fluoro-4-[3-[1-[5-(methoxymethyl)pyrimidin-2-yl]-4-piperidyl]propoxy]phenyl]acetyl]-N-[2-[[2-hydroxy-1,1-bis (hydroxymethyl)ethyl]carbamoylamino]ethyl]azetidine-3-carboxamide] | 100 to 130% | 100 to 1000 nM |
| O=C(NC(CO)CO)C1CN(C(=O)Cc2ccc(OCCCC3CCN(c4ncc(Cl)cn4)CC3)cc2F)C1 [Example 28, 1-[2-[4-[3-[1-(5-chloropyrimidin-2-yl)-4-piperidyl]propoxy]-2-fluoro-phenyl]acetyl]-N-[2-hydroxy-1-(hydroxymethyl)ethyl]azetidine-3-carboxamide] | 100 to 130% | 100 to 1000 nM |
| O=C(CC1CN(C(=O)Cc2ccc(OCCCC3CCN(c4ncc(Cl)cn4)CC3)cc2F)C1)NC(CO)(CO)CO [Example 32, 2-[1-[2-[4-[3-[1-(5-chloropyrimidin-2-yl)-4-piperidyl]propoxy]-2-fluoro-phenyl]acetyl]azetidin-3-yl]-N-[2-hydroxy-1,1-bis(hydroxymethyl)ethyl]acetamide] | 100 to 130% | 100 to 1000 nM |
| O=C(CC1CN(C(=O)Cc2ccc(OCCCC3CCN(c4ncc(Cl)cn4)CC3)cc2F)C1)NCC(O)(CO)CO [Example 33, 2-[1-[2-[4-[3-[1-(5-chloropyrimidin-2-yl)-4-piperidyl]propoxy]-2-fluoro-phenyl]acetyl]azetidin-3-yl]-N-[2,3-dihydroxy-2-(hydroxymethyl)propyl]acetamide] | ≥ 130% | 100 to 1000 nM |
| CCCc1cnc(N2CCC(CCCOc3cc(F)c(CC(=O)N4CC(C(=O)NCCC[N+](C)(C)C)C4)c(F)c3)CC2)nc1 [Example 40, 3-[[1-[2-[2,6-difluoro-4-[3-[1-(5-propylpyrimidin-2-yl)-4-piperidyl]propoxy]phenyl]acetyl]azetidine-3-carbonyl]amino]propyl-trimethyl-ammonium formate] | 100 to 130% |  |
| O=C(NCC(O)(CO)CO)C1CCN(C(=O)Cc2ccc(OCCCC3CCN(c4ncc(Cl)cn4)CC3)cc2F)CC1 [Example 41, 1-[2-[4-[3-[1-(5-chloropyrimidin-2-yl)-4-piperidyl]propoxy]-2-fluoro-phenyl]acetyl]-N-[2,3-dihydroxy-2-(hydroxymethyl)propyl]piperidine-4-carboxamide] | 100 to 130% | 100 to 1000 nM |
| NCCOCCOCCNCC1CN(C(=O)Cc2ccc(OCCCC3CCN(c4ncc(Cl)cn4)CC3)cc2F)C1 [Example 52, 1-[3-[[2-[2-(2-aminoethoxy)ethoxy]ethylamino]methyl]azetidin-1-yl]-2-[4-[3-[1-(5-chloropyrimidin-2-yl)-4-piperidyl]propoxy]-2-fluoro-phenyl]ethanone] | 100 to 130% | 100 to 1000 nM |
| O=C(Cc1c(F)cc(OCCCC2CCN(c3ncc(Cl)cn3)CC2)cc1F)N1CC(CNC[C@H](O)[C@@H](O)[C@H](O)[C@H](O)CO)C1 [Example 53, 2-[4-[3-[1-(5-chloropyrimidin-2-yl)-4-piperidyl]propoxy]-2,6-difluoro-phenyl]-1-[3-[[[(2S,3R,4R,5R)-2,3,4,5,6-pentahydroxyhexyl]amino]methyl]azetidin-1-yl]ethanone] | ≥ 130% | ≤ 100 nM |

Now from value to molecule:

| Emax | EC50 | Compound |
| --- | --- | --- |
| ≥ 130% | ≤ 100 nM | O=C(NC(CO)(CO)CO)C1CN(C(=O)Cc2c(F)cc(OCCCC3CCN(c4ncc(Cl)cn4)CC3)cc2F)C1 [Example 26, 1-[2-[4-[3-[1-(5-chloropyrimidin-2-yl)-4-piperidyl]propoxy]-2,6-difluoro-phenyl]acetyl]-N-[2-hydroxy-1,1-bis(hydroxymethyl)ethyl]azetidine-3-carboxamide] |
| 100 to 130% | ≤ 100 nM | O=C(NCC(O)(CO)CO)C1CN(C(=O)Cc2ccc(OCCCC3CCN(c4ncc(Cl)cn4)CC3)cc2F)C1 [Example 30, 1-[2-[4-[3-[1-(5-chloropyrimidin-2-yl)-4-piperidyl]propoxy]-2-fluoro-phenyl]acetyl]-N-[2,3-dihydroxy-2-(hydroxymethyl)propyl]azetidine-3-carboxamide] |
| ≥ 130% | ≤ 100 nM | O=C(CC1CN(C(=O)Cc2c(F)cc(OCCCC3CCN(c4ncc(Cl)cn4)CC3)cc2F)C1)NCC(O)(CO)CO [Example 34, 2-[1-[2-[4-[3-[1-(5-chloropyrimidin-2-yl)-4-piperidyl]propoxy]-2,6-difluoro-phenyl]acetyl]azetidin-3-yl]-N-[2,3-dihydroxy-2-(hydroxymethyl)propyl]acetamide] |
| ≥ 130% | ≤ 100 nM | O=C(CCC1CN(C(=O)Cc2ccc(OCCCC3CCN(c4ncc(Cl)cn4)CC3)cc2F)C1)NCC(O)(CO)CO [Example 35, 3-[1-[2-[4-[3-[1-(5-chloropyrimidin-2-yl)-4-piperidyl]propoxy]-2-fluoro-phenyl]acetyl]azetidin-3-yl]-N-[2,3-dihydroxy-2-(hydroxymethyl)propyl]propanamide] |
| 100 to 130% | ≤ 100 nM | O=C(CCC1CN(C(=O)Cc2c(F)cc(OCCCC3CCN(c4ncc(Cl)cn4)CC3)cc2F)C1)NCC(O)(CO)CO [Example 36, 3-[1-[2-[4-[3-[1-(5-chloropyrimidin-2-yl)-4-piperidyl]propoxy]-2,6-difluoro-phenyl]acetyl]azetidin-3-yl]-N-[2,3-dihydroxy-2-(hydroxymethyl)propyl]propanamide] |
| 100 to 130% | ≤ 100 nM | O=C(Cc1ccc(OCCCC2CCN(c3ncc(Cl)cn3)CC2)cc1F)N1CC(CNCC(O)(CO)CO)C1 [Example 43, 2-[4-[3-[1-(5-chloropyrimidin-2-yl)-4-piperidyl]propoxy]-2-fluoro-phenyl]-1-[3-[[[2,3-dihydroxy-2-(hydroxymethyl)propyl]amino]methyl]azetidin-1-yl]ethanone] |
| 100 to 130% | ≤ 100 nM | O=C(Cc1ccc(OCCCC2CCN(c3ncc(Cl)cn3)CC2)cc1F)N1CC(CNCC(CO)CO)C1 [Example 45, 2-[4-[3-[1-(5-chloropyrimidin-2-yl)-4-piperidyl]propoxy]-2-fluoro-phenyl]-1-[3-[[[3-hydroxy-2-(hydroxymethyl)propyl]amino]methyl]azetidin-1-yl]ethanone] |
| 100 to 130% | ≤ 100 nM | O=C(Cc1ccc(OCCCC2CCN(c3ncc(Cl)cn3)CC2)cc1F)N1CC(CN2C[C@@H](O)[C@@H](O)C2)C1 [Example 48, 2-[4-[3-[1-(5-chloropyrimidin-2-yl)-4-piperidyl]propoxy]-2-fluoro-phenyl]-1-[3-[[rac-(3S,4R)-3,4-dihydroxypyrrolidin-1-yl]methyl]azetidin-1-yl]ethanone] |
| 100 to 130% | ≤ 100 nM | O=C(Cc1ccc(OCCCC2CCN(c3ncc(Cl)cn3)CC2)cc1F)N1CC(CN2C[C@@H](O)[C@@H](O)[C@@H](O)C2)C1 [Example 50, 2-[4-[3-[1-(5-chloropyrimidin-2-yl)-4-piperidyl]propoxy]-2-fluoro-phenyl]-1-[3-[[rac-(3R,5S)-3,4,5-trihydroxy-1-piperidyl]methyl]azetidin-1-yl]ethanone] |
| 50 to 100% | ≤ 100 nM | O=C(Cc1ccc(OCCCC2CCN(c3ncc(Cl)cn3)CC2)cc1F)N1CC(CNCCOCCOCCO)C1 [Example 51, 2-[4-[3-[1-(5-chloropyrimidin-2-yl)-4-piperidyl]propoxy]-2-fluoro-phenyl]-1-[3-[[2-[2-(2-hydroxyethoxy)ethoxy]ethylamino]methyl]azetidin-1-yl]ethanone] |
